Assay results from patent publication US20030129629A1, “Methods and compositions for the identification, assessment, prevention, and therapy of human cancers” (Millennium Pharmaceuticals, Inc., priority 2000, published 2003).
Several values for one entry are separate records, joined by “and”; a condition that tells them apart may be missing. Equal entries are not always repeated. Where two headings read alike, the source gives them in different places.

System: 60 cancer cell lines (NCI 60 cancer cell line series)
Assay: NCI-DTP in vitro cancer screen, sulforhodamine B (SRB) growth inhibition, 48 hour exposure
Type: cell-based, human
Method: Cancer Cell Line Preparation. Sixty cancer cell lines were obtained from the National Cancer Institute Developmental Therapeutics Program (NCI-DTP). Procedures for growing cells and testing compounds have been described previously (Scudiero et al., Cancer Res. 1988, 48:4827-4833; Stinson et al., Anticancer Res.; Myers et al., Electrophoresis 1997, 18:647-653). Cells are plated on day 0 at a density individualized for each cell line so that they will generally be sub-confluent at the end of the assay period. On day 1, a compound is added in the format for a duplicate-well, 5-dose, ten-fold interval dose response study.
No-drug, no-cell and no-growth controls are included. On day 3 the cells are processed for staining with sulforhodamine B (SRB), which reflects the amount of cell mass present at the end of a 48 hour exposure to the test agent. From dose response curves based on the SRB data, various parameters can be determined. […] More precisely, the quantity used in the calculation to be described is the potency measure −log{GI50}.
Activity database (A). […] This subset of compounds was selected from the larger 23,000 compound database available from the DTP. The compounds were selected on the basis of their known mechanism of action and chemical structure. The average potency −log{GI50} was extracted from the comma-delimited text files available through the Web at http://www.nci.nih.gov/intra/lmp/jnwbio.html. Subsequently, these −log{GI50} values were inspected manually and classified as indicating either Low, Medium or High sensitivity to each compound.

Sc1ncnc2nc[nH]c12 [6-mercaptopurine]
classification of cell line as Low(1), Medium(2), High(3) sensitivity to compound (Breast BT-549 CL5013): 1 | classification of cell line as Low(1), Medium(2), High(3) sensitivity to compound (Breast HS-578T CL5006): 1 | classification of cell line as Low(1), Medium(2), High(3) sensitivity to compound (Breast MCF7(I) CL5001): 2 | classification of cell line as Low(1), Medium(2), High(3) sensitivity to compound (Breast MCF7/ADRr CL5002): 2 | classification of cell line as Low(1), Medium(2), High(3) sensitivity to compound (Breast MDA-MB-231 CL5005): 1 | classification of cell line as Low(1), Medium(2), High(3) sensitivity to compound (Breast MDA-MB-435 CL5011): 2 | classification of cell line as Low(1), Medium(2), High(3) sensitivity to compound (Breast MDA-N CL5012): 2 | classification of cell line as Low(1), Medium(2), High(3) sensitivity to compound (Breast T-47D CL5014): 2 | classification of cell line as Low(1), Medium(2), High(3) sensitivity to compound (CNS SF-268 CL12014): 2 | classification of cell line as Low(1), Medium(2), High(3) sensitivity to compound (CNS SF-295 CL12015): 2 | classification of cell line as Low(1), Medium(2), High(3) sensitivity to compound (CNS SF-539 CL12016): 2 | classification of cell line as Low(1), Medium(2), High(3) sensitivity to compound (CNS SNB-19 CL12002): 1 | classification of cell line as Low(1), Medium(2), High(3) sensitivity to compound (CNS SNB-75(I) CL12005): 2 | classification of cell line as Low(1), Medium(2), High(3) sensitivity to compound (CNS U251(I) CL12009): 2 | classification of cell line as Low(1), Medium(2), High(3) sensitivity to compound (Colon COLO-250 CL4010): 2 | classification of cell line as Low(1), Medium(2), High(3) sensitivity to compound (Colon HCC-2998 CL4002): 2 | classification of cell line as Low(1), Medium(2), High(3) sensitivity to compound (Colon HCT-15 CL4015): 2 | classification of cell line as Low(1), Medium(2), High(3) sensitivity to compound (Colon HCT-116 CL4003): 2 | classification of cell line as Low(1), Medium(2), High(3) sensitivity to compound (Colon HT29(I) CL4001): 2 | classification of cell line as Low(1), Medium(2), High(3) sensitivity to compound (Colon KM12 CL4017): 2 | classification of cell line as Low(1), Medium(2), High(3) sensitivity to compound (Colon SW-620 CL4009): 2 | classification of cell line as Low(1), Medium(2), High(3) sensitivity to compound (Leukemia CCRF-CEM(I) CL7003): 3 | classification of cell line as Low(1), Medium(2), High(3) sensitivity to compound (Leukemia HL-60(I) CL7008): 2 | classification of cell line as Low(1), Medium(2), High(3) sensitivity to compound (Leukemia K562(I) CL7005): 3 | classification of cell line as Low(1), Medium(2), High(3) sensitivity to compound (Leukemia MOLT-4 CL7006): 2 | classification of cell line as Low(1), Medium(2), High(3) sensitivity to compound (Leukemia RPMI-8226(I) CL7010): 2 | classification of cell line as Low(1), Medium(2), High(3) sensitivity to compound (Leukemia SR CL7019): 3 | classification of cell line as Low(1), Medium(2), High(3) sensitivity to compound (Melanoma LOX IMVI CL10001): 3 | classification of cell line as Low(1), Medium(2), High(3) sensitivity to compound (Melanoma M14 CL10014): 3 | classification of cell line as Low(1), Medium(2), High(3) sensitivity to compound (Melanoma MALME-3M CL10002): 2 | classification of cell line as Low(1), Medium(2), High(3) sensitivity to compound (Melanoma SK-MEL-2 CL10005): 2 | classification of cell line as Low(1), Medium(2), High(3) sensitivity to compound (Melanoma SK-MEL-5 CL10007): 2 | classification of cell line as Low(1), Medium(2), High(3) sensitivity to compound (Melanoma SK-MEL-28 CL10008): 1 | classification of cell line as Low(1), Medium(2), High(3) sensitivity to compound (Melanoma UACC-62 CL10020): 2 | classification of cell line as Low(1), Medium(2), High(3) sensitivity to compound (Melanoma UACC-257 CL10021): 1 | classification of cell line as Low(1), Medium(2), High(3) sensitivity to compound (NSCLC A549/ATCC CL1004): 1 | classification of cell line as Low(1), Medium(2), High(3) sensitivity to compound (NSCLC EKVX CL1008): 1 | classification of cell line as Low(1), Medium(2), High(3) sensitivity to compound (NSCLC HOP-62 CL1026): 2 | classification of cell line as Low(1), Medium(2), High(3) sensitivity to compound (NSCLC HOP-92 CL1029): 2 | sensitivity classification Low(1)/Medium(2)/High(3) (NSCLC NCI-H23(I) CL1001): 2 | classification of cell line as Low(1), Medium(2), High(3) sensitivity to compound (NSCLC NCI-H226 CL1013): 1 | sensitivity classification Low(1)/Medium(2)/High(3) (NSCLC NCI-H332M CL1017): 2 | sensitivity classification Low(1)/Medium(2)/High(3) (NSCLC NCI-H460 CL1021): 2 | sensitivity classification Low(1)/Medium(2)/High(3) (NSCLC NCI-H522 CL1003): 2 | sensitivity classification Low(1)/Medium(2)/High(3) (Ovarian IGROV1 CL6010): 2 | sensitivity classification Low(1)/Medium(2)/High(3) (Ovarian OVCAR-3 CL6001): 3 | sensitivity classification Low(1)/Medium(2)/High(3) (Ovarian OVCAR-4 CL6002): 2 | sensitivity classification Low(1)/Medium(2)/High(3) (Ovarian OVCAR-5 CL6003): 2 | sensitivity classification Low(1)/Medium(2)/High(3) (Ovarian OVCAR-8 CL6005): 2 | sensitivity classification Low(1)/Medium(2)/High(3) (Ovarian SK-OV-3 CL6011): 3 | sensitivity classification Low(1)/Medium(2)/High(3) (Prostate DU-145 CL11003): 2 | sensitivity classification Low(1)/Medium(2)/High(3) (Prostate PC-3(I) CL11001): 2 | sensitivity classification Low(1)/Medium(2)/High(3) (Renal 786-0 CL9018): 2 | sensitivity classification Low(1)/Medium(2)/High(3) (Renal A498 CL9013): 1 | sensitivity classification Low(1)/Medium(2)/High(3) (Renal ACHN CL9023): 2 | sensitivity classification Low(1)/Medium(2)/High(3) (Renal CAKI-1 CL9015): 2 | sensitivity classification Low(1)/Medium(2)/High(3) (Renal RXF-393 CL9016): 1 | sensitivity classification Low(1)/Medium(2)/High(3) (Renal SN12C CL9008): 1 | sensitivity classification Low(1)/Medium(2)/High(3) (Renal TK10 CL9024): 2 | sensitivity classification Low(1)/Medium(2)/High(3) (Renal UO-31 CL9004): 2

Nc1ccn([C@@H]2O[C@H](CO)[C@@H](O)[C@@H]2O)c(=O)n1 [AraC]
classification of cell line as Low(1), Medium(2), High(3) sensitivity to compound: 3 and 2 and 1 | sensitivity classification Low(1)/Medium(2)/High(3): 3 and 2 and 1
